{
  "source": "patent US20210128685A1",
  "about": "“PEDF-DERIVED PEPTIDES FOR PROMOTING MEIBOMIAN GLAND REGENERATION AND USES THEREOF” (BRIM Biotechnology, Inc., priority 2018, published 2021)",
  "key": {"limbus stem cells": {"test_system": "limbus stem cells", "details": "rabbit; cited from earlier work"}, "[1]": {"assay": "Alanine scanning and variants of the 29-mer (activities)"}, "acinar progenitor cells": {"test_system": "acinar progenitor cells", "assay": "5-Bromo-2'-deoxyuridine (BrdU) incorporation assay in upper eyelids after subconjunctival injection", "assay_type": "in vivo, C57BL/6 mice", "details": "for BrdU-positive cells per acinus: 24 hours after subconjunctival injection; for BrdU-positive cells in acinar base (cell proliferation): day 5 after single subconjunctival injection", "experimental": "(§1) Twelve to fifteen (12-15) months old C57BL/6 mice and 4-8 months old C57BL/6 mice were used. These mice were kept in standard pathogen-free environment at 24° C.±1° C., relatively humidity 60%±10%. All procedures were approved by the Mackay Memorial Hospital Review Board for animal investigation and were conducted in accordance with the ARVO statement for the Use of Animals in Ophthalmic and Vision Research. Mice were anesthetized by an intraperitoneal injection of a mixture of zoletil (6 mg/kg) and xylazine (3 mg/kg). One drop of 0.5% proparacaine hydrochloride (Alcaine; Alcon, Fort Worth, Tex., USA) was given before any ocular procedure.\n(§2) The 29-mer was reconstituted in DMSO to a final concentration 100 μM. A separated dose of 10 μl of 29-mer (100 μM) mixed with 90 μl of phosphate-buffered saline (PBS) was injected into the upper and lower conjunctival fornix. 10 μl of DMSO mixed with 90 μl of PBS served as a control. To evaluate the effect of 29-mer on tear film break-up time (TBUT) and tear secretion of old mice, subconjunctival injection of 29-mer was introduced weekly till one month and then followed up for two months.\nAfter subconjunctival injection of 29-mer or DMSO, 5-Bromo-2′deoxyuridine (BrdU) 0.1 mg/g of body weight was injected intraperitoneally. The upper eyelids were harvested at 24 hours to evaluate the proliferation of acinar progenitor cells. To study the mitosis of cells, mice were administered by intraperitoneal injections of BrdU daily for 3 days, and the upper eyelids were harvested at day 5. Before performing immunohistochemistry of BrdU, slides were treated with 1 N HCL at 95° C. for 20 minutes.\nImmunohistochemistry (IHC) was performed as previously described and modified.^22 Formalin-fixed, paraffin-embedded, mice specimens were deparaffinized in xylene and rehydrated in a graded series of ethanol concentrations. Slides were blocked with 10% goat serum for 60 minutes and then incubated with primary antibody against BrdU (1:800 dilution), PEDF (1:50), or p63 (1:200) overnight at 4° C. The slides were subsequently incubated with the appropriate peroxidase-labeled goat immunoglobulin (1:500 dilution; Chemicon, Temecula, Calif.) for 20 minutes and then incubated with chromogen substrate (3,3-diaminobenzidine) for 2 minutes before counterstaining with hematoxylin. Quantification was estimated based on high quality images captured using a Pannoramic digital slide scanners (3Dhistech Ltd. Budapest, Hungary)."}, "[2]": {"test_system": "acinar progenitor cells (p63-expressing cells)", "assay": "Immunohistochemistry of stem cell marker p63 in upper eyelids 5 days after single treatment", "assay_type": "in vivo, C57BL/6 mice", "details": "aging (old) mice", "experimental": "as §1\n(§3) The 29-mer was reconstituted in DMSO to a final concentration 100 μM. A separated dose of 10 μl of 29-mer (100 μM) mixed with 90 μl of phosphate-buffered saline (PBS) was injected into the upper and lower conjunctival fornix. 10 μl of DMSO mixed with 90 μl of PBS served as a control. […]\nImmunohistochemistry (IHC) was performed as previously described and modified.^22 Formalin-fixed, paraffin-embedded, mice specimens were deparaffinized in xylene and rehydrated in a graded series of ethanol concentrations. […] Quantification was estimated based on high quality images captured using a Pannoramic digital slide scanners (3Dhistech Ltd. Budapest, Hungary)."}, "Meibomian gland": {"test_system": "Meibomian gland", "assay": "Eyelid whole mount Oil Red O (ORO) staining, MG size", "assay_type": "in vivo, C57BL/6 mice", "details": "old mice, weekly subconjunctival injection, at one month", "experimental": "as §1, §3\nAt one month, upper eyelids were subjected to whole mount Oil Red O (ORO) staining. The size of MG tissue in whole mount was quantified using the color range selection and histogram tool with a computer-assisted image analyzer (Adobe Photoshop 7.0) and was calculated in Pixels. […]"}, "meibocytes": {"test_system": "meibocytes", "assay": "Oil Red O staining of eyelid cryosections for lipids", "assay_type": "in vivo, C57BL/6 mice", "details": "old mice, versus DMSO", "experimental": "as §1, §2\nEyelid tissues were embedded in OCT and sectioned at 8 μm of thickness. Frozen sections were placed in 60% 2-propanol for 1 minute, stained with filtered ORO solution for 15 minutes, rinsed with PBS and counterstained with hematoxylin.^4"}, "[3]": {"test_system": "myogenic stem cells and C2C12 myoblasts", "details": "cited from earlier work"}, "[4]": {"assay": "Measurement of tear volume (phenol red thread tear test)", "assay_type": "in vivo, C57BL/6 mice", "details": "old mice, weekly subconjunctival injection up to 4 weeks; weeks 1, 2, 3, 4 and 8", "experimental": "as §1, §3\nThe amount of tears was measured with the phenol red thread tear test using ZONE-QUICK cotton threads (Yokota, Tokyo, Japan).^19,20 After general anesthesia, the lower eyelid was pulled down slightly, and a 1 mm portion of the thread was placed on the palpebral conjunctiva at the point ⅓ of the distance from the lateral canthus. […] The red portion of the thread is measured in millimeters."}, "[5]": {"assay": "Tear film break-up time (TBUT)", "assay_type": "in vivo, C57BL/6 mice", "details": "old mice, weekly subconjunctival injection up to 4 weeks; week 1 to week 4, difference significant up to 8 weeks", "experimental": "as §1, §3\nTo avoid the reduced lipids secretion resulting from no eye blinking under long-term anesthesia, Tear break-up time (TBUT)^19,20 was performed immediately after mice were anesthetized. […] After three compulsory blinks, TBUT was recorded in […] under a slit-lamp with a blue-free barrier filter. […]"}},
  "data": [
    {"substance": "44-mer: 44-mer motif of PEDF, amino acid positions Val78-Thr121 (VLLSPLSVATALSALSLGAEQRTESIIHRALYYDLISSPDIHGT; UniProt P36955 78-121, looked up, fragment)", "values": [
      {"measurement": "stem cells proliferation and regeneration in the limbus", "setting": "limbus stem cells", "result": "induce stem cells proliferation and regeneration"}
    ]},
    {"substance": "SLGAEHRTESVIHR (listed as Mus musculus) [mo-14mer, mouse variant of the 14-mer]", "values": [
      {"measurement": "activities of 29-mer variants", "setting": "[1]", "result": "active"}
    ]},
    {"substance": "SLGAEHRTESVIHRALYYDLITNPDIHST (listed as Mus musculus) [mo-29mer, mouse variant of the 29-mer]", "values": [
      {"measurement": "activities of 29-mer variants", "setting": "[1]", "result": "active"}
    ]},
    {"substance": "SLGAEQRTESIIHRALYYDLISSPDIHGT (listed as Homo sapiens) [29-mer, PEDF-derived short peptide, human PEDF residues 93-121 (Ser93-Thr121)]", "values": [
      {"measurement": "BrdU-positive cells per acinus", "setting": "acinar progenitor cells; old mice", "result": "1.67±0.58", "unit": "cells/per acinus"},
      {"measurement": "BrdU-positive cells in acinar base (cell proliferation)", "setting": "acinar progenitor cells; old mice", "result": "4.29±1.19"},
      {"measurement": "BrdU-positive cells per acinus", "setting": "acinar progenitor cells; young mice", "result": "2.35±0.73", "unit": "cells/per acinus"},
      {"measurement": "BrdU-positive cells in acinar base (cell proliferation)", "setting": "acinar progenitor cells; young mice", "result": "6.70±1.35"},
      {"measurement": "number of p63-expressing cells per acinus", "setting": "[2]", "result": "10.98±2.75"},
      {"measurement": "MG acinar size, whole mount ORO, upper eyelids", "setting": "Meibomian gland", "result": "2347530±34986.4", "unit": "pixels/eyelid"},
      {"measurement": "ORO staining within the cytoplasm of differentiating meibocytes, cross sections", "setting": "meibocytes", "result": "more overall ORO staining"},
      {"measurement": "proliferation of myogenic stem cells and C2C12 myoblasts", "setting": "[3]", "result": "induce proliferation"},
      {"measurement": "Tear secretion test versus control", "setting": "[4]", "result": "invariant"},
      {"measurement": "TBUT versus control", "setting": "[5]", "result": "significantly longer"}
    ]}
  ]
}
